Data: ChEMBL document CHEMBL5325478, “The unique activity of saponin: Induction of cytotoxicity in HTLV-1 infected cells” (Bioorg Med Chem, 2023)
Calls of active or inactive are those of the source. The calls are words filed in the database; no cut-off is given here.

Columns and labels:
[1] = test system: MT2; experiment: Suppression of GAG protein cleavage in human MT-2 cells infected with HTLV-1 assessed as reduction in intracellular p28 protein expression at 50 uM incubated for 3 days by immunoblot analysis; format: cell-based; conditions: time 3.0 day
[2] = test system: Jurkat; experiment: Cytotoxicity against human Jurkat cells assessed as reduction in cell viability at 50 uM incubated for 3 days by MTT assay; format: functional, cell-based; conditions: time 3.0 day
[3] = test system: MT2; experiment: Cytotoxicity against human MT2 cells infected with HTLV-1 assessed as reduction in cell viability at 50 uM incubated for 3 days by MTT assay; format: functional, cell-based; conditions: time 3.0 day
[4] = test system: MT2; experiment: Suppression of GAG protein cleavage in human MT-2 cells infected with HTLV-1 assessed as reduction in p19 protein expression in supernatant at 50 uM incubated for 3 days by immunoblot analysis; format: cell-based; conditions: time 3.0 day
[5] = test system: MT2; experiment: Suppression of GAG protein cleavage in human MT-2 cells infected with HTLV-1 assessed as increase in intracellular Pr53 protein expression at 50 uM incubated for 3 days by immunoblot analysis; format: cell-based; conditions: time 3.0 day
[6] = test system: Jurkat; experiment: Cytotoxicity against human Jurkat cells assessed as reduction in cell viability at 100 uM incubated for 3 days by MTT assay; format: functional, cell-based; conditions: time 3.0 day
[7] = test system: MT2; experiment: Cytotoxicity against human MT2 cells infected with HTLV-1 assessed as reduction in cell viability at 100 uM incubated for 3 days by MTT assay; format: functional, cell-based; conditions: time 3.0 day
[8] = test system: MT2; experiment: Preferential cytotoxicity against human MT2 cells infected with HTLV-1 assessed as reduction in cell viability at 10 to 25 uM incubated for 3 days by MTT assay; format: functional, cell-based; conditions: dose 10-25 µM, time 3.0 day
[9] = test system: MT2; experiment: Induction of GAG aggregation in middle cross section of human MT-2 cells infected with HTLV-1 assessed as ratio of cells with aggregated GAG at 50 uM incubated for 2 hrs by immunostaining based confocal microscopic analysis (reference value: 44.1%); format: cell-based
[10] = test system: MT2; experiment: Induction of GAG aggregation in top cross section of human MT-2 cells infected with HTLV-1 assessed as ratio of cells with aggregated GAG at 50 uM incubated for 2 hrs by immunostaining based confocal microscopic analysis (reference value: 4.3%); format: cell-based
[11] = test system: HeLa; experiment: Upregulation of membrane localized GAG protein expression in human HeLa cells transfected with GAG-FLAG expression vector assessed as effect on E-cadherin protein expression at 50 uM by chemiluminescence based immunoblotting analysis; format: functional, cell-based
[12] = test system: HeLa; experiment: Induction of GAG aggregation in human HeLa cells transfected with Gag-FLAG expression vector assessed as increase in number of bright GAG dots at 50 uM incubated for 2 hrs by immunostaining based confocal microscopic analysis; format: cell-based
[13] = test system: HeLa; experiment: Induction of GAG aggregation in human HeLa cells transfected with Gag-Venus expression vector assessed as increase in number of bright GAG dots at 50 uM incubated for 2 hrs by immunostaining based confocal microscopic analysis; format: cell-based

CC1(C)CC[C@]2(C(=O)O)CC[C@]3(C)C(=CC[C@@H]4[C@@]5(C)CC[C@H](O)[C@@](C)(CO)[C@@H]5CC[C@]43C)[C@@H]2C1
Activity [1]: inactive | Activity [2]: Active | Activity [3]: Active | Activity [4]: inactive | Activity [5]: inactive

CC1(C)CC[C@]2(C(=O)O[C@@H]3O[C@H](CO[C@@H]4O[C@H](CO)[C@@H](O)[C@H](O)[C@H]4O)[C@@H](O)[C@H](O)[C@H]3O)CC[C@]3(C)C(=CC[C@@H]4[C@@]5(C)CC[C@H](O[C@@H]6OC[C@H](O)[C@H](O)[C@H]6O)[C@@](C)(CO)[C@@H]5CC[C@]43C)[C@@H]2C1
Activity [6]: inactive | Activity [7]: inactive

CC1(C)CC[C@]2(C(=O)O)CC[C@]3(C)C(=CC[C@@H]4[C@@]5(C)CC[C@H](O[C@@H]6OC[C@H](O)[C@H](O)[C@H]6O[C@@H]6OC[C@@H](O)[C@H](O)[C@H]6O)[C@@](C)(CO)[C@@H]5CC[C@]43C)[C@@H]2C1
Activity [6]: Active | Activity [7]: Active | Activity [2]: Active | Activity [3]: Active | Activity [8]: inactive

C[C@@H]1O[C@@H](O[C@H]2[C@H](O[C@H]3CC[C@@]4(C)[C@@H](CC[C@]5(C)[C@@H]4CC=C4[C@@H]6CC(C)(C)CC[C@]6(C(=O)O[C@@H]6O[C@H](CO[C@@H]7O[C@H](CO)[C@@H](O[C@@H]8O[C@@H](C)[C@H](O)[C@@H](O)[C@H]8O)[C@H](O)[C@H]7O)[C@@H](O)[C@H](O)[C@H]6O)CC[C@]45C)[C@]3(C)CO)OC[C@H](O)[C@@H]2O)[C@H](O)[C@H](O)[C@H]1O
Activity [6]: inactive | Activity [7]: inactive

CC1(C)CC[C@]2(C(=O)O)CC[C@]3(C)C(=CC[C@@H]4[C@@]5(C)CC[C@H](O[C@@H]6OC[C@H](O)[C@H](O)[C@H]6O[C@@H]6O[C@H](CO)[C@@H](O)[C@H](O)[C@H]6O)[C@@](C)(CO)[C@@H]5CC[C@]43C)[C@@H]2C1
Activity [6]: Active | Activity [7]: Active | Activity [1]: Active | Activity [2]: inactive | Activity [3]: Active | Activity [4]: Active | Activity [5]: inactive | Ratio [9]: 41.3% | Ratio [10]: 7.3% | Activity [11]: inactive | Activity [12]: Active | Activity [13]: Active

CC1(C)CC[C@]2(C(=O)O)CC[C@]3(C)C(=CC[C@@H]4[C@@]5(C)CC[C@H](O[C@@H]6OC[C@H](O)[C@H](O)[C@H]6O)[C@@](C)(CO)[C@@H]5CC[C@]43C)[C@@H]2C1
Activity [6]: Active | Activity [7]: Active | Activity [2]: Active | Activity [3]: Active | Activity [8]: inactive

CC1(C)CC[C@]2(C(=O)O[C@@H]3O[C@H](CO[C@@H]4O[C@H](CO)[C@@H](O)[C@H](O)[C@H]4O)[C@@H](O)[C@H](O)[C@H]3O)CC[C@]3(C)C(=CC[C@@H]4[C@@]5(C)CC[C@H](O[C@@H]6OC[C@H](O)[C@H](O)[C@H]6O[C@@H]6OC[C@@H](O)[C@H](O)[C@H]6O)[C@@](C)(CO)[C@@H]5CC[C@]43C)[C@@H]2C1
Activity [6]: inactive | Activity [7]: inactive

C[C@@H]1O[C@@H](O[C@H]2[C@H](O)[C@@H](O)[C@H](OC[C@H]3O[C@@H](OC(=O)[C@]45CCC(C)(C)C[C@H]4C4=CC[C@@H]6[C@@]7(C)CC[C@H](O[C@@H]8OC[C@H](O[C@@H]9O[C@@H](C)[C@H](O)[C@@H](O)[C@H]9O)[C@H](O)[C@H]8O[C@@H]8O[C@H](CO)[C@@H](O)[C@H](O)[C@H]8O)[C@@](C)(CO)[C@@H]7CC[C@@]6(C)[C@]4(C)CC5)[C@H](O)[C@@H](O)[C@@H]3O)O[C@@H]2CO)[C@H](O)[C@H](O)[C@H]1O
Activity [6]: inactive | Activity [7]: inactive
